Measured values taken from US20250243218A1, “NOVEL CARBAMATE COMPOUND AND USE THEREOF” (CHENGDU SHIBEIKANG BIOMEDICAL TECHNOLOGY CO., LTD., priority 2022, published 2025).
Counter-ions that a name gives are not always drawn.

Legend:
[1] = molecular target: T1, hERG potassium channel (Homo sapiens, UniProt Q12809); assay: cell-based; details: IC50 (μM), inhibition of cardiac hERG potassium channel, manual patch-clamp, stably overexpressed hERG channel
T1 construct: expressed in transfected cells
Text: Test Example 2: Effect of Compounds on Current in Stably Overexpressed hERG Channel

[2] = Solubility study; type: physicochemical; details: 25° C. to 30° C.
Protocol: Samples of the example compound 2 and comparative example 2 (Vicagrel) were accurately weighed. Under the condition of 25° C. to 30° C., 1 ml of physiological saline and 1 ml of a buffer (pH 1.2) were taken, and added with 10 mg of each compound, respectively. The compound 2 of the present disclosure had excellent solubility, which can satisfy the demand for the formulation into an injection with an effective concentration in clinical, while the solubility of the comparative example 2 was extremely low and it cannot satisfy the demand for injection, and the addition of additional solubilizer may pose potential safety risks.

[3] = Influencing factor test (high temperature, high humidity, light); type: physicochemical; details: high temperature (60° C.), two days
Protocol: Test Methods: The samples of the compound 2 and comparative example 2 (Vicagrel) were weighed and placed in weighing bottles, respectively, and the weighing bottles were placed under the conditions of high temperature (60° C.), high humidity (RH 80%), and light (5000 Lux), respectively.

[4] = test system: ADP-induced platelet aggregation in rats; assay: Antiplatelet aggregation effect: ADP-induced platelet aggregation in PRP of rats after iv administration; type: in vivo; details: single iv at the same molar dose, blood 3 h after administration, ADP final 20 μM
Text: 1. Test objective: Evaluation and comparison of the antiplatelet aggregation treatment effect of each compound after administration at the same molar amount
70 rats were randomly and evenly grouped into 7 groups, i.e., solvent control group, comparative example 1 (2-Oxo-clopidogrel) group, comparative example 2 (Vicagrel) group, compound 1 group, compound 2 group, compound 7 group and compound 8 group.
Rats were anesthetized by intraperitoneal injection of 1.5% sodium pentobarbital.
The anesthetized animals were transferred to an operating platform.
The rats were injected with anesthetic, and fixed on the operating platform in a supine position after the whole body of the rat became soft. After routine disinfection, the abdomen of the rat was incised along the abdominal midline using surgical scissors to open the abdominal cavity. The adipose tissue around the blood vessels was gently separated with a small forceps, and the excess adipose tissue covering the blood vessels was then wiped and removed with the cotton ball to make the blood vessels clearly visible (the abdominal aorta is located anterior to the vertebral column, and the abdominal vein appears thicker and darker in color than the abdominal aorta). The blood vessel was first fixed to prevent it from moving as much as possible. The left thumb and index finger fixed the adipose tissue and other organs on both sides of the blood vessel, while the ring finger pressed on the blood vessel at the upper end of the needle insertion point to lower the blood pressure, which can prevent blood spurting. The puncture needle was held with the right hand, with the bevel of the needle tip facing downward. The needle was inserted at an angle of about 30 degrees and advanced towards the heart to a suitable depth of about 5 mm. Once the blood had started to enter the needle via its tip, the other end of the blood collection needle was inserted into the vacuum tube. After the insertion of needle, the needle tip could be clamped with a hemostatic clip to prevent it from puncturing the blood vessel if the rat struggled due to insufficient anesthesia.
Three hours after the administration, the rats were anesthetized with sodium pentobarbital. Then blood was collected from the abdominal aorta, added with 3.8% sodium citrate (1:9) as an anticoagulant, mixed evenly and centrifuged at 200 g for 10 min. The supernatant was harvested to obtain the platelet-rich plasma (PRP), and the residual plasma was then centrifuged at 1600 g for 15 min to obtain the resulting supernatant as platelet-poor plasma (PPP).
Platelet aggregation rate was measured using a platelet aggregometer (model: Agg RAM, Helena, USA). The PPPs corresponding to the PRPs to be tested in each channel were first used to correct the light transmission, and the PPPs were removed after the correction. A cuvette added with 225 μl of PRP to be tested was then placed in each channel, and added with a stirrer, then ADP (with a final concentration of 20 μM). The platelet aggregometer immediately began to measure the platelet aggregation rate.

[5] = Pharmacokinetic study in SD rats, 2-Oxo-clopidogrel in plasma by LC/MS/MS; type: in vivo; details: SD, rat, in vivo
Text: After being administered via single gavage at the same molar amount, the pharmacokinetic characteristics of each compound were investigated, and the main pharmacokinetic parameters were compared.
Each test compound was accurately weighed separately into a clean drug container, dissolved with appropriate amount of Solutol, shaken by vortex, added with purified water, ultrasonicated, and shaken by vortex until the compound was completely dissolved. All the formulations were freshly prepared on the day of administration.
Thirty healthy adult SD rats were administered via gavage.
Grouping and Fasting: SD rats were randomly grouped, with 6 rats per group, and administered with the corresponding compounds via gavage according to Table 3.
Sample Collection and Processing: 0.2 ml of blood was collected at different time points of before (0 h) and 5 min, 15 min, 30 min, 1 h, 2 h, 4 h, 8 h, and 24 h after the administration. After the anticoagulation with EDTA-K2 was completed, the blood was centrifuged at 4° C. for 5 min, and then the plasma was separated and stored at −80° C. for later measurement.
Measurement: The blood drug concentration of 2-Oxo-clopidogrel in all PK plasma samples was measured by LC/MS/MS method, and the pharmacokinetic parameters of individual compounds were calculated by using software WinNonlin 7.2.

T1 sequence (Q12809 whole entry): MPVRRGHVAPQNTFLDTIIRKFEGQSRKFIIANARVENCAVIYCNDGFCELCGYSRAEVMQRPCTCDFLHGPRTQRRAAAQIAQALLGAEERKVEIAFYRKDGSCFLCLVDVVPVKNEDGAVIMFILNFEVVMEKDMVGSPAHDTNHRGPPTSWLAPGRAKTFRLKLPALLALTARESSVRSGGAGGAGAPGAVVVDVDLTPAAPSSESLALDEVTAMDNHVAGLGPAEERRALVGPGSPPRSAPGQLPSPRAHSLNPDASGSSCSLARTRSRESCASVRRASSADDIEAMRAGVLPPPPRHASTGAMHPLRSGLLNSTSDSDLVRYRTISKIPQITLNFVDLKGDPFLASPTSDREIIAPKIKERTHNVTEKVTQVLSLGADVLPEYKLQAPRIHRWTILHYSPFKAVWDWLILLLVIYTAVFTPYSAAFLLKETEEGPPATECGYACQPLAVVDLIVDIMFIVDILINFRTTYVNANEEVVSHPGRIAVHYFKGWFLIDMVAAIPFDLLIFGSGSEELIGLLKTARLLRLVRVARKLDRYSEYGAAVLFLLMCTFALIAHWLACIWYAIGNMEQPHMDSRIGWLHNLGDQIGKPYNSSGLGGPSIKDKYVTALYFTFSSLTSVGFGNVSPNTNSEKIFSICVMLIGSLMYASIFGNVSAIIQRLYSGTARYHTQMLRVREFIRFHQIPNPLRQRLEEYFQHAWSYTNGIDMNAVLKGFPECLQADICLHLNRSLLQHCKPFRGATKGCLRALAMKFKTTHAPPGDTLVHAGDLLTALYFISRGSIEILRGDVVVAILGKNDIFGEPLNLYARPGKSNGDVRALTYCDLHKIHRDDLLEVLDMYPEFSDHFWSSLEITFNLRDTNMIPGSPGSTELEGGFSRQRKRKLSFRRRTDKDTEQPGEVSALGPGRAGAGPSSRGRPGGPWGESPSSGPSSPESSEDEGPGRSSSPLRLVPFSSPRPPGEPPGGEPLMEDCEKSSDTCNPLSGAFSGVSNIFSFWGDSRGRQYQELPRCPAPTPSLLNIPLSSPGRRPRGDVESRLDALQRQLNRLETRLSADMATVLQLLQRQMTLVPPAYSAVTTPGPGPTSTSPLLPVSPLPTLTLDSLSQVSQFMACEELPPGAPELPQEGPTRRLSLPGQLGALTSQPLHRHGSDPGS

Structure (SMILES)	IC50 [1] [µM]	Platelet aggregation rate (%) ([4]; solvent control 76.06 ± 3.29)	other results
COC(=O)[C@H](c1ccccc1Cl)N1CCc2sc(OC(=O)N3CCN(C4CC4)CC3)cc2C1 [Compound 4, (S)-5-(1-(2-chlorophenyl)-2-methoxy-2-oxyethyl)-4,5,6,7-tetrahydrothieno[3,2-c]pyridin-2-yl 4-cyclopropylpiperazine-1-carboxylate]	16.4	–	–
COC(=O)[C@H](c1ccccc1Cl)N1CCc2sc(OC(=O)N3CCN(C4CCCC4)CC3)cc2C1 [Compound 5, (S)-5-(1-(2-chlorophenyl)-2-methoxy-2-oxyethyl)-4,5,6,7-tetrahydrothieno[3,2-c]pyridin-2-yl 4-cyclopentylpiperazine-1-carboxylate]	15.8	–	–
COC(=O)[C@H](c1ccccc1Cl)N1CCc2sc(OC(C)=O)cc2C1 [Comparative Example 2, Vicagrel, reference compound]	–	39.32 ± 12.38 ^ %	Solubility, pH 1.2 buffer ([2]; 10 mg compound added to 1 ml buffer (pH 1.2)): < 0.5 mg/mL; Solubility, Physiological saline(1 ml) ([2]; 10 mg compound added to 1 ml physiological saline): insoluble; change in appearance and characteristics [3]: from a white solid to a yellowish-brown oil; Platelet aggregation rate (%) ([4]; solvent control 76.06 ± 3.29, listed as comparative example 2): 39.32±12.38%
COC(=O)[C@H](c1ccccc1Cl)N1CCC2SC(=O)C=C2C1 (stereo partly shown) [Comparative Example 1, 2-Oxo-clopidogrel, reference compound]	–	31.32 ± 6.07 ^ %	AUC0-last [5]: 60.15 ± 14.22 ng·h/mL; Cmax [5]: 38.48 ± 13.51 ng/mL; T1/2 [5]: 70.8 ± 12.6 min; Tmax [5]: 37.8 ± 9 min; Platelet aggregation rate (%) ([4]; solvent control 76.06 ± 3.29, listed as comparative example 1): 31.32±6.07%
COC(=O)[C@H](c1ccccc1Cl)N1CCc2sc(OC(=O)N3CCC(C4CCN(C)C4)CC3)cc2C1 (stereo partly drawn) [Compound 9, 5-((S)-1-(2-chlorophenyl)-2-methoxy-2-oxyethyl)-4,5,6,7-tetrahydrothieno[3,2-c]pyridin-2-yl-4-(1-methylpyrrolidine-3-yl) piperidine-1-carboxylate]	27.2	–	–
COC(=O)[C@H](c1ccccc1Cl)N1CCc2sc(OC(=O)N3CCC(N4CCCCC4)CC3)cc2C1 [Compound 8, (S)-5-(1-(2-chlorophenyl)-2-methoxy-2-oxyethyl)-4,5,6,7-t etrahydrothieno[3,2-c]pyridin-2-yl [1,4′-bipiperidine]-1′-carboxylate hydrochloride]	27.3	–	Platelet aggregation rate (%) ([4]; solvent control 76.06 ± 3.29, hydrochloride): 27.13 ± 6.50 %
COC(=O)[C@H](c1ccccc1Cl)N1CCc2sc(OC(=O)N3CCN(C4CCCCC4)CC3)cc2C1 [Compound 6, (S)-5-(1-(2-chlorophenyl)-2-methoxy-2-oxyethyl)-4,5,6,7-tetrahydrothieno[3,2-c]pyridin-2-yl 4-cyclohexylpiperazine-1-carboxylate]	14.9	–	–
COC(=O)[C@H](c1ccccc1Cl)N1CCc2sc(OC(=O)N3CCN(C)CC3)cc2C1 [Compound 1, (S)-5-(1-(2-chlorophenyl)-2-methoxy-2-oxyethyl)-4,5,6,7-tetrahydrothieno[3,2-c]pyridin-2-yl 4-methylpiperazine-1-carboxylate]	20.5	24.08 ± 6.00 %	Platelet aggregation rate (%) ([4]; solvent control 76.06 ± 3.29, listed as compound 1): 24.08±6.00%
CCCN1CCN(C(=O)Oc2cc3c(s2)CCN([C@H](C(=O)OC)c2ccccc2Cl)C3)CC1 [Compound 3, (S)-5-(1-(2-chlorophenyl)-2-methoxy-2-oxyethyl)-4,5,6,7-t etrahydrothieno[3,2-c]pyridin-2-yl-4-propylpiperazine-1-carboxylate]	15.2	–	–
COC(=O)[C@H](c1ccccc1Cl)N1CCc2sc(OC(=O)N3CCC(N4CCCCC4)CC3)cc2C1 [Compound 7, (S)-5-(1-(2-chlorophenyl)-2-methoxy-2-oxyethyl)-4,5,6,7-tetrahydrothieno[3,2-c]pyridin-2-yl [1,4′-bipiperidine]-1′-carboxylate]	25.4	27.59 ± 6.99 %	Platelet aggregation rate (%) ([4]; solvent control 76.06 ± 3.29, listed as compound 7): 27.59±6.99%
COC(=O)[C@H](c1ccccc1Cl)N1CCc2sc(OC(=O)N3CCC(N4CCN(C)CC4)CC3)cc2C1 [Compound 10, (S)-5-(1-(2-chlorophenyl)-2-methoxy-2-oxyethyl)-4,5,6,7-tetrahydrothieno[3,2-c]pyridin-2-yl-4-(4-methylpiperazine-1-yl) piperidine-1-carboxylate]	25.9	–	–
